For 45 compounds, IC50 results are on record in US11583532B2, “Triazolopyrimidine derivatives for use as ghrelin o-acyl transferase (GOAT) inhibitors” (Boehringer Ingelheim International GmbH, priority 2018, dated 2023).

By IC50 is commonly meant the midpoint of a concentration-inhibition curve. A low value points to greater potency.

Several values for one entry are separate records, joined by “and”; a condition that tells them apart may be missing. Identical values can stand only once.

human GOAT (ghrelin O-acyl transferase), sequence (Q96T53 whole entry): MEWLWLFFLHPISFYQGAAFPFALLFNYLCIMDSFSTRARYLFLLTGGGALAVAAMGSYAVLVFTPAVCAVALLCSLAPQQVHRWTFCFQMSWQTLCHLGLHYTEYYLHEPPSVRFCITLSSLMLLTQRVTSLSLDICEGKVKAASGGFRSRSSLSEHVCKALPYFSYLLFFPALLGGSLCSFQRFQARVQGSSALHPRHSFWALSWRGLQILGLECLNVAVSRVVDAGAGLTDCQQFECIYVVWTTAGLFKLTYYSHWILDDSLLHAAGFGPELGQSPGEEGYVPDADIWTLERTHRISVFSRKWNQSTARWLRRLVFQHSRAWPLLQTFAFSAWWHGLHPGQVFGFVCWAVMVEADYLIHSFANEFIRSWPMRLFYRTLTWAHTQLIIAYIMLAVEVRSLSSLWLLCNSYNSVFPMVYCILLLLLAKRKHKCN

The experiment concerns the target human GOAT (ghrelin O-acyl transferase) (Homo sapiens (Human), UniProt Q96T53). Put plainly: Determination of hGOAT activity in HEK293 cells after incubation with test compound (acyl-ghrelin ELISA). In kind it is cell-based. The note with it: HEK293 cells stably transfected with preproghrelin and human GOAT cDNA; octanoate-BSA 100 μM; 5 hours incubation; acyl-ghrelin in medium by ELISA; 8 compound concentrations. The procedure: Determination of hGOAT Activity in HEK293 Cells after incubation with test compound
HEK293 cells stably transfected with two expression vectors, one coding for preproghrelin cDNA and a second for the expression of human GOATcDNA are used as a cellular model. After feeding the cells with octanoic acid for 5 hours, acyl-ghrelin is measured in cell culture medium by an ELISA procedure.
Cellline: Hek293 hGOAT/PPGhrl Clone #1B8Sodium octanoate, Sigma, Cat.-No. C5038
BSA: Sigma, Cat.-No. A8806
BD Poly-D-Lysin 384-well Plates, black-clear polystyrene BD Bioscience Cat.-No. […] ELISA human acylated Ghrelin Kit purchased from Bertin Pharman (detailed composition of buffers e.g. wash-puffer, ELISA buffer not known)
All further reagents used were of highest analytical grade available.
Cells are plated with a density of 5000 cells/well in 384-well poly-D-lysin plates and incubated for 1 day at 37° C., 5% CO2 in DMEM medium, 10% FCS, 1×NEAA, Puromycin (0.5 μg/ml) and G418 (1 mg/ml). Then the medium is changed to a identical medium without FCS and containing Octanoate-BSA (final concentration 100 μM each) and compound in DMSO (final DMSO concentration 0.3%). After incubation for 5 hours acylghrelin in the medium is measured by ELISA.
The medium sample is diluted 1:25 in Elisa buffer, a 25 μl aliquot is transferred to a 384-well ELISA plate previously washed 4 times with 100 μL wash buffer, and 25 μl tracer-solution is added. After incubation overnight (˜20 h) at 4° C. temperature the plate is washed 4 times with 100 μl wash-buffer per well. Finally 50 μl Ellman's reagent is added to each well and the plate is incubated in the dark for 20 minutes. The absorbance is measured at 405 nm in an Envision multilabel reader and the amount of acylated ghrelin is calculated according to a acylated ghrelin standard curve provided in the same plate.
The analysis of the data is performed by calculation of the percentage of acyl-ghrelin produced in the presence of test compound compared to the amount of acyl-ghrelin produced in the vehicle control samples. An inhibitor of the GOAT enzyme will give values between 100% CTL (no inhibition) and 0% CTL (complete inhibition).
IC50 values are calculated with Assay Explorer or other suited software based on curve fitting of results of 8 different compound concentrations.
Background: ELISA stands for enzyme-linked immunosorbent assay.
As to `Cc1nc2ncnn2c(N)c1Cc1ccc(SC(F)(F)F)cc1` [Example 6.5, 5-methyl-6-({4-[(trifluoromethyl)sulfanyl]phenyl}methyl)-[1,2,4]triazolo[1,5-a]pyrimidin-7-amine], inhibition was half-maximal at 1.7 nM (IC50).

In turn, `Cc1nc2ncnn2c(N)c1Cc1cccc(OC(F)F)n1` [Example 4.8] came in with an IC50 of 8.8 nM.

`Cc1nc2ncnn2c(N)c1Cc1ccc(OC(F)(F)F)cc1` [Example 6.1, 5-methyl-6-{[4-(trifluoromethoxy)phenyl]methyl}-[1,2,4]triazolo[1,5-a]pyrimidin-7-amine] gave an IC50 of 3.9 nM.

`COc1cc(C(F)(F)F)ccc1Cc1c(C)nc2ncnn2c1N` [Example 6.2] yielded an IC50 of 0.69 nM.

`Cc1nc2ncnn2c(N)c1Cc1ccc(C(F)(F)F)cc1F` [Example 21.1, 6-{[2-Fluoro-4-(trifluoromethyl)phenyl]methyl}-5-methyl-[1,2,4]triazolo[1,5-a]pyrimidin-7-amine]: it took 8.1 nM to reach half-maximal inhibition (IC50).

With `Cc1nc2ncnn2c(N)c1Cc1ccc(C#N)c(NCCF)n1` [Example 7.8], the IC50 came to 1.1 nM.

`Cc1nc2ncnn2c(N)c1Cc1cccc(-c2c[nH]nc2C(F)(F)F)n1` [Example 13.2] gave an IC50 of 2.1 nM. This IC50 is about 1.9-fold higher than that of the compound before.

In the case of `Cc1nc2ncnn2c(N)c1Cc1ccc(OC(F)(F)F)c(N=S2(=O)CCC2)c1` [Example 11.2], half-maximal inhibition (IC50) required 0.68 nM.

For `Cc1nc2ncnn2c(N)c1Cc1ccc(C#N)c(NCCC(F)F)n1` [Example 7.7], half-maximal inhibition (IC50) required 0.93 nM.

The compound `COC(=O)c1cc(Cc2c(C)nc3ncnn3c2N)ccc1C(F)(F)F` [Example 7.2] came in with an IC50 of 0.57 nM.

Take `Cc1nc2ncnn2c(N)c1Cc1ccc(OC(F)F)c(Br)c1` [Example 1.2]: the IC50 was found to be 2 nM. This IC50 is about 3.5-fold higher than that of the compound before.

`Cc1nc2ncnn2c(N)c1Cc1ccc(Br)c(C(=O)OCC(F)(F)F)c1` [Example 22.1, 2,2,2-Trifluoroethyl 5-({7-amino-5-methyl-[1,2,4]triazolo[1,5-a]pyrimidin-6-yl}methyl)-2-bromobenzoate]: half-maximal inhibition (IC50) was put at 7.2 nM.

Consider `Cc1nc2ncnn2c(N)c1Cc1ccc(Br)c(OC(F)F)n1` [Example 5.1, 6-{[5-Bromo-6-(difluoromethoxy)pyridin-2-yl]methyl}-5-methyl-[1,2,4]triazolo[1,5-a]pyrimidin-7-amine], for which the IC50 was 0.13 nM.

For `COc1cc(Cc2c(Cl)nc3ncnn3c2N)ccc1C(F)(F)F` [Example 25.2], the IC50 worked out at 1 nM.

As for `COc1nc(C(F)(F)F)ccc1Cc1c(C)nc2ncnn2c1N` [Example 4.2], the IC50 stood at 1.9 nM. Compared with the last compound, the IC50 is about 1.9-fold higher.

Take `Cc1nc2ncnn2c(N)c1Cc1ccc(OC(F)F)c(Br)n1` [Example 4.1, 6-{[6-Bromo-5-(difluoromethoxy)pyridin-2-yl]methyl}-5-methyl-[1,2,4]triazolo[1,5-a]pyrimidin-7-amine]: 0.3 nM corresponded to half-maximal inhibition (IC50).

Regarding `Cc1nc2ncnn2c(N)c1Cc1ccc(C#N)c(NCC(F)(F)F)n1` [Example 7.6], the IC50 worked out at 0.69 nM.

Turning to `Cc1nc2ncnn2c(N)c1Cc1ccc(Br)c(OCCF)n1` [Example 8.3], 0.3 nM corresponded to half-maximal inhibition (IC50).

The compound `Cc1nc2ncnn2c(N)c1Cc1ccc(OC(F)(F)F)c(Br)c1` [Example 4.4, 6-{[3-bromo-4-(trifluoromethoxy)phenyl]methyl}-5-methyl-[1,2,4]triazolo[1,5-a]pyrimidin-7-amine] showed an IC50 of 1.1 nM. Against the preceding compound, the IC50 is about 3.7-fold higher.

`Cc1nc2ncnn2c(N)c1Cc1ccc(OC(F)(F)F)c(C(N)=O)c1` [Example 15.4] displayed an IC50 of 9.3 nM.

For `Cc1nc2ncnn2c(N)c1Cc1ccc(C(F)(F)F)c(C#N)n1` [Example 24.1, 6-({7-Amino-5-methyl-[1,2,4]triazolo[1,5-a]pyrimidin-6-yl}methyl)-3-(trifluoromethyl)pyridine-2-carbonitrile], the IC50 was 4.6 nM. This IC50 lies about 2-fold lower than the previous one.

`Cc1nc2ncnn2c(N)c1Cc1ccc(Br)c(N2CC(F)(F)C2)n1` [Example 23.3] had an IC50 of 0.36 nM. Against the preceding compound, the IC50 is about 13-fold lower.

`Nc1c(Cc2ccc(C(F)(F)F)cc2)c(Cl)nc2ncnn12` [Example 25.3] yielded an IC50 of 5.7 nM. This IC50 is about 16-fold higher than that of the compound before.

Regarding `Cc1nc2ncnn2c(N)c1Cc1ccc(Br)c(N2Cc3ccc(F)cc3C2)n1` [Example 23.6], the IC50 worked out at 0.86 nM.

For the compound `Cc1nc2ncnn2c(N)c1Cc1ccc([S+]([O-])C(F)(F)F)cc1` (stereo not drawn) [Example 19.1, 5-M ethyl-6-[(4-trifluoromethanesulfinylphenyl)methyl]-[1,2,4]triazolo[1,5-a]pyrimidin-7-amine], half-maximal inhibition (IC50) was put at 4.9 nM.

In turn, `Cc1nc2ncnn2c(N)c1Cc1ccc(C(F)(F)F)c(N2CCOCC2)n1` [Example 3.1, 5-Methyl-6-{[6-(morpholin-4-yl)-5-(trifluoromethyl)pyridin-2-yl]methyl}-[1,2,4]triazolo[1,5-a]pyrimidin-7-amine] yielded an IC50 of 0.65 nM.

In turn, `Cc1nc2ncnn2c(N)c1Cc1ccc(Br)c(OCCCF)n1` [Example 8.1, 6-{[5-Bromo-6-(3-fluoropropoxy)pyridin-2-yl]methyl}-5-methyl-[1,2,4]triazolo[1,5-a]pyrimidin-7-amine] returned an IC50 of 0.27 nM. Compared with the last compound, the IC50 is about 2.4-fold lower.

In turn, `Cc1nc2ncnn2c(N)c1Cc1ccc(Br)c(-n2cc(F)cn2)n1` [Example 10.1, 6-{[5-Bromo-6-(4-fluoro-1H-pyrazol-1-yl)pyridin-2-yl]methyl}-5-methyl-[1,2,4]triazolo[1,5-a]pyrimidin-7-amine] returned an IC50 of 0.68 nM.

Compound `Cc1nc2ncnn2c(N)c1Cc1ccc(C(F)(F)F)cc1Br` [Example 17.2] yielded an IC50 of 5 nM.

As for `Cc1nc2ncnn2c(N)c1Cc1ccc(C(F)(F)F)c(N2CC(F)(F)C2)n1` [Example 3.3], the IC50 was 0.32 nM and 0.76 nM.

With `CCOc1cc(C(F)(F)F)ccc1Cc1c(C)nc2ncnn2c1N` [Example 4.5], the IC50 came to 2.4 nM.

`Cc1nc2ncnn2c(N)c1Cc1ccc(Br)c(N2CCC(F)(F)C2)n1` [Example 23.1, 6-{[5-Bromo-6-(3,3-difluoropyrrolidin-1-yl)pyridin-2-yl]methyl}-5-methyl-[1,2,4]triazolo[1,5-a]pyrimidin-7-amine] came in with an IC50 of 0.25 nM. Compared with the last compound, the IC50 is about 9.6-fold lower.

In the case of `Cc1nc2ncnn2c(N)c1Cc1ccc(OC(F)(F)F)c(C(=O)N(C)C)c1` [Example 15.2, 5-({7-Amino-5-methyl-[1,2,4]triazolo[1,5-a]pyrimidin-6-yl}methyl)-N,N-dimethyl-2-(trifluoromethoxy)benzamide], the IC50 is 3.5 nM and 5.4 nM.

`Cc1nc2ncnn2c(N)c1Cc1cccc(-c2cn(C)nc2C(F)(F)F)n1` [Example 13.1, 5-Methyl-6-({6-[1-methyl-3-(trifluoromethyl)-1H-pyrazol-4-yl]pyridin-2-yl}methyl)-[1,2,4]triazolo[1,5-a]pyrimidin-7-amine] registered an IC50 of 1.7 nM.

The compound `Cc1nc2ncnn2c(N)c1Cc1ccc(C#N)c(OCC2(C(F)(F)F)CC2)n1` [Example 9.2] gave an IC50 of 8.3 nM.

For `COc1cc(Cc2c(C)nc3ncnn3c2N)ccc1C(F)(F)F` [Example 7.5], the IC50 worked out at 0.92 nM.

`Cc1nc2ncnn2c(N)c1Cc1ccc(C(F)(F)F)c(-c2ccco2)n1` [Example 2.1, 6-{[6-(Furan-2-yl)-5-(trifluoromethyl)pyridin-2-yl]methyl}-5-methyl-[1,2,4]triazolo[1,5-a]pyrimidin-7-amine] returned an IC50 of 0.4 nM.

The compound `Cc1nc2ncnn2c(N)c1Cc1ccc(-c2c[nH]nc2C(F)(F)F)c(N)n1` [Example 16.1, 6-({7-Amino-5-methyl-[1,2,4]triazolo[1,5-a]pyrimidin-6-yl}methyl)-3-[3-(trifluoromethyl)-1H-pyrazol-4-yl]pyridin-2-amine] came in with an IC50 of 3.1 nM. Against the preceding compound, the IC50 is about 7.8-fold higher.

`Cc1nc2ncnn2c(N)c1Cc1ccc(C#N)c(OCC(C)(F)F)n1` [Example 7.4] registered an IC50 of 1.3 nM. Compared with the last compound, the IC50 is about 2.4-fold lower.

For `Cc1nc2ncnn2c(N)c1Cc1ccc(C#N)c(NCC(F)F)n1` [Example 7.1, 6-({7-amino-5-methyl-[1,2,4]triazolo[1,5-a]pyrimidin-6-yl}methyl)-2-[(2,2-difluoroethyl)amino]pyridine-3-carbonitrile], the IC50 was determined as 0.37 nM.

On to `Cc1nc2ncnn2c(N)c1Cc1ccc(C(F)(F)F)cc1` [Example 6.3], for which half-maximal inhibition (IC50) was put at 3.4 nM.

On to `Cc1nc2ncnn2c(N)c1Cc1ccc(OC(F)F)cc1` [Example 6.4], for which half-maximal inhibition (IC50) was put at 1.9 nM.

Consider `COC(=O)c1cc(Cc2c(C)nc3ncnn3c2N)ccc1OC(F)(F)F` [Example 15.1, Methyl 5-({7-amino-5-methyl-[1,2,4]triazolo[1,5-a]pyrimidin-6-yl}methyl)-2-(trifluoromethoxy)benzoate], for which 0.83 nM corresponded to half-maximal inhibition (IC50).

In turn, `Cc1nc2ncnn2c(N)c1Cc1ccc(C#N)c(NCC2CC2(F)F)n1` (stereo not drawn) [Example 7.10] displayed an IC50 of 6.2 nM.

For the compound `Cc1nc2ncnn2c(N)c1Cc1ccc(C(F)(F)F)c(N)n1` [Example 3.4], the IC50 was determined as 6.5 nM.
